Measured values as given in patent US10918713B2, “Epitopes from allergen proteins and methods and uses for immune response modulation” (LA JOLLA INSTITUTE FOR ALLERGY AND IMMUNOLOGY, priority 2012, dated 2021).
Values joined by “and” are separate entries in the source; they are usually repeats but may differ in a detail not shown here. Equal values may be shown once.

What was measured:
Format in all cases: cell-based, human
[1] = tested on: PBMC from allergic donors; experiment: IFN-γ ELISPOT with extract-stimulated short-term lines; conditions: positive donor/peptide response
Description: (§1) Spots were counted by computer-assisted image analysis (Zeiss, KS-ELISPOT reader, Munich, Germany).
(§2) Each assay was performed in triplicate. The level of statistical significance was determined with a Student's t-test using the mean of triplicate values of the response against relevant pools or individual peptides versus the response against the DMSO control.

[2] = tested on: PBMC from allergic donors; experiment: Dual ELISPOT, total IL-5 and IFN-γ response (SFC); conditions: sum of IFNg and IL-5
Description: as §1, §2

[3] = tested on: PBMC from allergic donors; experiment: IL-5 ELISPOT with extract-stimulated short-term lines; conditions: positive donor/peptide response
Description: as §1, §2

Structure (SMILES) | Response (SFC/10^6) IFNg ([1]; each table line is one donor) | Response (SFC/10^6) Total ([2]; each table line is one donor) | Response (SFC/10^6) IL-5 ([3]; each table line is one donor) | Response (SFC/10^6) IFNg ([1]; one donor per table line) | Response (SFC/10^6) Total ([2]; one donor per table line) | Response (SFC/10^6) IL-5 ([3]; one donor per table line)
CC[C@H](C)[C@H](NC(=O)[C@H](CC(N)=O)NC(=O)[C@H](CC(C)C)NC(=O)[C@@H](NC(=O)[C@H](CC(C)C)NC(=O)[C@@H](NC(=O)[C@H](CCCCN)NC(=O)[C@H](C)NC(=O)[C@H](CC(=O)O)NC(=O)[C@@H](N)CO)[C@@H](C)O)C(C)C)C(=O)N[C@@H](CCCCN)C(=O)N[C@@H](Cc1ccc(O)cc1)C(=O)N[C@H](C(=O)N[C@@H](CCCNC(=N)N)C(=O)N1CCC[C@H]1C(=O)O)[C@@H](C)O [3324.1142] | 150 SFC/10^6 | 227 SFC/10^6 and 147 SFC/10^6 and 1697 SFC/10^6 | 227 SFC/10^6 and 147 SFC/10^6 and 1547 SFC/10^6 | – | – | –
CC[C@H](C)[C@H](NC(=O)[C@@H](NC(=O)[C@H](CCCNC(=N)N)NC(=O)[C@H](CC(C)C)NC(=O)[C@H](C)NC(=O)[C@H](CCC(=O)O)NC(=O)[C@@H](NC(=O)[C@H](CC(C)C)NC(=O)[C@@H](NC(=O)[C@H](C)NC(=O)[C@@H](NC(=O)[C@H](Cc1ccc(O)cc1)NC(=O)[C@H](C)NC(=O)[C@@H](N)CC(=O)O)C(C)C)[C@@H](C)O)[C@@H](C)O)C(C)C)C(=O)N[C@@H](C)C(=O)O [3324.1167] | 1017 SFC/10^6 | 1427 SFC/10^6 and 1743 SFC/10^6 | 410 SFC/10^6 and 1743 SFC/10^6 | – | – | –
CC[C@H](C)[C@H](NC(=O)[C@H](CCCCN)NC(=O)[C@H](CCC(=O)O)NC(=O)[C@@H](NC(=O)[C@@H](N)CC(C)C)[C@@H](C)CC)C(=O)N[C@@H](CC(N)=O)C(=O)N[C@@H](C)C(=O)NCC(=O)N[C@@H](Cc1ccccc1)C(=O)N[C@@H](CCCCN)C(=O)N[C@@H](C)C(=O)N[C@@H](C)C(=O)N[C@H](C(=O)N[C@@H](C)C(=O)N[C@@H](C)C(=O)O)C(C)C [3324.1175] | 960 SFC/10^6 | 1860 SFC/10^6 and 1202 SFC/10^6 and 263 SFC/10^6 | 900 SFC/10^6 and 1202 SFC/10^6 and 263 SFC/10^6 | – | – | –
C[C@H](NC(=O)[C@@H](NC(=O)[C@H](C)NC(=O)[C@H](C)NC(=O)[C@H](C)NC(=O)[C@@H]1CCCN1C(=O)[C@@H](NC(=O)[C@H](C)NC(=O)[C@@H](NC(=O)[C@H](C)NC(=O)[C@H](Cc1ccc(O)cc1)NC(=O)[C@H](C)NC(=O)[C@H](C)NC(=O)[C@H](C)NC(=O)[C@@H]1CCCN1)[C@@H](C)O)[C@@H](C)O)[C@@H](C)O)C(=O)O [3324.1184] | 58 SFC/10^6 | 58 SFC/10^6 and 1637 SFC/10^6 | 1637 SFC/10^6 | – | – | –
CC[C@H](C)[C@H](NC(=O)[C@H](Cc1ccccc1)NC(=O)[C@H](C)NC(=O)[C@@H](N)CC(=O)O)C(=O)N[C@@H](C)C(=O)N[C@@H](C)C(=O)N[C@@H](CC(C)C)C(=O)N[C@H](C(=O)N[C@@H](CCC(=O)O)C(=O)N[C@@H](C)C(=O)N[C@@H](CC(C)C)C(=O)N[C@@H](CCCNC(=N)N)C(=O)N[C@H](C(=O)N[C@H](C(=O)N[C@@H](C)C(=O)O)[C@@H](C)CC)C(C)C)[C@@H](C)O [3324.1432] | 713 SFC/10^6 | 713 SFC/10^6 and 540 SFC/10^6 | 540 SFC/10^6 | – | – | –
CC[C@H](C)[C@H](NC(=O)[C@H](Cc1ccccc1)NC(=O)[C@H](CCCCN)NC(=O)[C@H](Cc1ccc(O)cc1)NC(=O)[C@@H](NC(=O)[C@H](CCC(=O)O)NC(=O)[C@H](Cc1ccc(O)cc1)NC(=O)[C@H](C)NC(=O)CN)[C@@H](C)O)C(=O)N1CCC[C@H]1C(=O)N[C@@H](CO)C(=O)N[C@@H](CC(C)C)C(=O)N[C@@H](CCC(=O)O)C(=O)N[C@@H](C)C(=O)N[C@@H](C)C(=O)O [3324.1433] | 208 SFC/10^6 and 153 SFC/10^6 | 247 SFC/10^6 and 208 SFC/10^6 and 153 SFC/10^6 | 247 SFC/10^6 | – | – | –
CC[C@H](C)[C@H](NC(=O)[C@H](C)NC(=O)[C@H](CCCCN)NC(=O)[C@H](CC(N)=O)NC(=O)[C@H](Cc1ccccc1)NC(=O)[C@H](C)NC(=O)CNC(=O)[C@H](CCC(=O)O)NC(=O)[C@H](Cc1ccccc1)NC(=O)[C@@H](NC(=O)[C@@H](NC(=O)[C@H](Cc1ccccc1)NC(=O)[C@H](CCCCN)NC(=O)[C@H](CC(=O)O)NC(=O)[C@@H](N)CC(N)=O)[C@@H](C)O)C(C)C)C(=O)O [3324.1442] | 93 SFC/10^6 | 400 SFC/10^6 and 93 SFC/10^6 | 400 SFC/10^6 | – | – | –
CC(C)[C@H](NC(=O)[C@H](Cc1ccccc1)NC(=O)[C@H](CO)NC(=O)[C@H](CC(=O)O)NC(=O)[C@H](Cc1ccccc1)NC(=O)[C@H](CCCCN)NC(=O)[C@H](C)NC(=O)[C@H](CCC(=O)O)NC(=O)[C@@H]1CCCN1C(=O)[C@@H](NC(=O)[C@H](C)N)[C@@H](C)O)C(=O)N[C@@H](C)C(=O)N[C@@H](C)C(=O)N[C@@H](Cc1ccccc1)C(=O)N[C@H](C(=O)O)[C@@H](C)O [3324.1570] | 80 SFC/10^6 and 117 SFC/10^6 | 238 SFC/10^6 and 80 SFC/10^6 and 117 SFC/10^6 | 238 SFC/10^6 | – | – | –
CC[C@H](C)[C@H](NC(=O)[C@@H](N)CC(=O)O)C(=O)N[C@@H](CC(N)=O)C(=O)N[C@H](C(=O)NCC(=O)N[C@@H](Cc1ccccc1)C(=O)N[C@@H](CCCCN)C(=O)N[C@@H](C)C(=O)N[C@@H](C)C(=O)N[C@H](C(=O)N[C@@H](C)C(=O)N[C@@H](C)C(=O)N[C@@H](C)C(=O)N[C@@H](C)C(=O)NCC(=O)O)C(C)C)C(C)C [3324.1571] | 47 SFC/10^6 and 1183 SFC/10^6 | 397 SFC/10^6 and 47 SFC/10^6 and 1057 SFC/10^6 and 1183 SFC/10^6 | 397 SFC/10^6 and 1057 SFC/10^6 | – | – | –
CC(C)[C@H](NC(=O)[C@H](C)NC(=O)[C@H](C)NC(=O)[C@H](CCCCN)NC(=O)[C@@H](N)Cc1ccccc1)C(=O)N[C@@H](C)C(=O)N[C@@H](C)C(=O)N[C@@H](C)C(=O)N[C@@H](C)C(=O)NCC(=O)N[C@@H](C)C(=O)N1CCC[C@H]1C(=O)N1CCC[C@H]1C(=O)N[C@@H](C)C(=O)N[C@@H](CC(=O)O)C(=O)O [3324.1575] | 230 SFC/10^6 | 138 SFC/10^6 and 327 SFC/10^6 and 230 SFC/10^6 | 138 SFC/10^6 and 327 SFC/10^6 | – | – | –
CC[C@H](C)[C@H](NC(=O)[C@H](CC(=O)O)NC(=O)[C@H](CCC(=O)O)NC(=O)[C@H](CCSC)NC(=O)[C@H](CC(C)C)NC(=O)[C@H](CCCCN)NC(=O)[C@@H](N)CCC(N)=O)C(=O)N[C@@H](CC(N)=O)C(=O)N[C@H](C(=O)NCC(=O)N[C@@H](Cc1ccccc1)C(=O)N[C@@H](CCCCN)C(=O)N[C@@H](C)C(=O)N[C@@H](C)C(=O)N[C@H](C(=O)O)C(C)C)C(C)C [3324.1580] | 317 SFC/10^6 and 283 SFC/10^6 | 317 SFC/10^6 and 390 SFC/10^6 | 107 SFC/10^6 | – | – | –
CC(C)C[C@H](NC(=O)[C@H](Cc1ccc(O)cc1)NC(=O)[C@H](C)NC(=O)[C@H](CCC(=O)O)NC(=O)[C@@H](NC(=O)[C@H](C)NC(=O)[C@H](CCCCN)NC(=O)[C@H](Cc1ccccc1)NC(=O)[C@@H](NC(=O)[C@H](CCC(=O)O)NC(=O)[C@H](CO)NC(=O)[C@H](C)N)C(C)C)C(C)C)C(=O)N[C@H](C(=O)N[C@@H](C)C(=O)N[C@@H](Cc1c[nH]cn1)C(=O)O)C(C)C [3324.1584] | – | – | – | 143 SFC/10^6 | 207 SFC/10^6 and 1033 SFC/10^6 and 97 SFC/10^6 | 207 SFC/10^6 and 890 SFC/10^6 and 97 SFC/10^6
CC(C)C[C@H](NC(=O)[C@H](CC(N)=O)NC(=O)[C@H](CC(=O)O)NC(=O)[C@H](CO)NC(=O)[C@H](CC(=O)O)NC(=O)[C@H](CC(C)C)NC(=O)[C@@H](NC(=O)[C@H](Cc1ccccc1)NC(=O)[C@H](C)NC(=O)[C@H](CCCCN)NC(=O)[C@H](Cc1ccccc1)NC(=O)[C@H](CC(C)C)NC(=O)[C@H](CCCNC(=N)N)NC(=O)[C@H](C)NC(=O)[C@@H]1CCCN1)C(C)C)C(=O)O [3324.1585] | – | – | – | 1877 SFC/10^6 and 393 SFC/10^6 and 180 SFC/10^6 | 170 SFC/10^6 and 2767 SFC/10^6 and 1790 SFC/10^6 and 583 SFC/10^6 and 700 SFC/10^6 and 70 SFC/10^6 | 170 SFC/10^6 and 890 SFC/10^6 and 1790 SFC/10^6 and 190 SFC/10^6 and 520 SFC/10^6 and 70 SFC/10^6
CC[C@H](C)[C@H](NC(=O)[C@@H](NC(=O)[C@H](CO)NC(=O)[C@H](C)N)C(C)C)C(=O)N1CCC[C@H]1C(=O)N1CCC[C@H]1C(=O)N[C@@H](C)C(=O)N[C@@H](CCCNC(=N)N)C(=O)N[C@@H](CC(C)C)C(=O)N[C@@H](Cc1ccccc1)C(=O)N[C@@H](CCCCN)C(=O)N[C@@H](C)C(=O)N[C@@H](Cc1ccccc1)C(=O)N[C@H](C(=O)N[C@@H](CC(C)C)C(=O)O)C(C)C [3324.1587] | – | – | – | 273 SFC/10^6 and 127 SFC/10^6 | 273 SFC/10^6 and 330 SFC/10^6 and 97 SFC/10^6 and 100 SFC/10^6 | 203 SFC/10^6 and 97 SFC/10^6 and 100 SFC/10^6
CC[C@H](C)[C@H](NC(=O)[C@H](CC(C)C)NC(=O)[C@H](CC(N)=O)NC(=O)[C@H](CC(=O)O)NC(=O)[C@H](CO)NC(=O)[C@H](CC(=O)O)NC(=O)[C@H](CC(C)C)NC(=O)[C@@H](NC(=O)[C@H](Cc1ccccc1)NC(=O)[C@H](C)NC(=O)[C@@H](N)CCCCN)C(C)C)C(=O)N1CCC[C@H]1C(=O)N[C@@H](CCCCN)C(=O)N[C@H](C(=O)N[C@H](C(=O)O)C(C)C)C(C)C [3324.1588] | – | – | – | 200 SFC/10^6 | 123 SFC/10^6 and 1147 SFC/10^6 and 57 SFC/10^6 | 123 SFC/10^6 and 947 SFC/10^6 and 57 SFC/10^6
CC[C@H](C)[C@H](NC(=O)[C@H](Cc1ccc(O)cc1)NC(=O)[C@H](CCC(=O)O)NC(=O)[C@H](CC(C)C)NC(=O)[C@H](CO)NC(=O)[C@@H](NC(=O)[C@@H](N)Cc1ccccc1)[C@@H](C)O)C(=O)N[C@@H](CCC(=O)O)C(=O)N[C@@H](C)C(=O)N[C@@H](C)C(=O)N[C@@H](CCCCN)C(=O)N[C@@H](Cc1c[nH]c2ccccc12)C(=O)N[C@@H](CC(C)C)C(=O)N[C@@H](CC(C)C)C(=O)N1CCC[C@H]1C(=O)O [3324.1589] | 310 SFC/10^6 | 1743 SFC/10^6 and 203 SFC/10^6 | 1433 SFC/10^6 and 203 SFC/10^6 | – | – | –
